# Active and inactive are the calls of the source. The calls are words filed in the database; no cut-off is given here.
# Target: Histone deacetylase 1 (Homo sapiens, UniProt Q13547)
# Assay: Inhibition of human recombinant HDAC1 pre-incubated with compounds for 10 mins measured followed by 60 mins of substrate addition
# Conditions: not given
# Chain of Histone deacetylase 1 (Q13547 whole entry): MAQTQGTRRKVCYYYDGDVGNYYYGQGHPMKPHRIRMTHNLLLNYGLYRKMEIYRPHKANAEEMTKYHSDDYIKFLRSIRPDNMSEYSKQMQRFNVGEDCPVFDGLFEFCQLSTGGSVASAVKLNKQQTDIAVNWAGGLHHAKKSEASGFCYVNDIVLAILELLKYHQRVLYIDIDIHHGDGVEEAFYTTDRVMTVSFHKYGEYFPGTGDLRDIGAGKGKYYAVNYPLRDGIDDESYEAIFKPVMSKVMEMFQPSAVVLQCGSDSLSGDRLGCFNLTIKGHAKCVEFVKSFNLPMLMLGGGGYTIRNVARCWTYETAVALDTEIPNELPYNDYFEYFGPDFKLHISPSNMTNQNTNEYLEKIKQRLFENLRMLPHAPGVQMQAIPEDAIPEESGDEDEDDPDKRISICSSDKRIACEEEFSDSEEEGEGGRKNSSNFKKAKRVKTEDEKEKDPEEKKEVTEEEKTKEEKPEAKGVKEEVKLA
row,Compound,IC50 [µM]
1,Nc1ccccc1NC(=O)c1ccc(CNC(=O)c2cnc(-c3ccc4c(c3)OCCO4)[nH]2)cc1,3.66
2,Nc1ccccc1NC(=O)c1ccc(CNC(=O)c2cnc(-c3ccccc3)[nH]2)cc1,1.41

# The remaining lines, values ahead:
row,IC50 [µM],Compound
1,2.06,CCCNNC(=O)c1ccc(CNC(=O)c2cnc(-c3ccccc3)[nH]2)cc1
2,4.45,COc1ccc(-c2ncc(C(=O)NCc3ccc(C(=O)Nc4ccccc4N)cc3)[nH]2)cc1

# Target: Histone deacetylase 3 (Homo sapiens, UniProt O15379)
# Sequence (O15379 whole entry): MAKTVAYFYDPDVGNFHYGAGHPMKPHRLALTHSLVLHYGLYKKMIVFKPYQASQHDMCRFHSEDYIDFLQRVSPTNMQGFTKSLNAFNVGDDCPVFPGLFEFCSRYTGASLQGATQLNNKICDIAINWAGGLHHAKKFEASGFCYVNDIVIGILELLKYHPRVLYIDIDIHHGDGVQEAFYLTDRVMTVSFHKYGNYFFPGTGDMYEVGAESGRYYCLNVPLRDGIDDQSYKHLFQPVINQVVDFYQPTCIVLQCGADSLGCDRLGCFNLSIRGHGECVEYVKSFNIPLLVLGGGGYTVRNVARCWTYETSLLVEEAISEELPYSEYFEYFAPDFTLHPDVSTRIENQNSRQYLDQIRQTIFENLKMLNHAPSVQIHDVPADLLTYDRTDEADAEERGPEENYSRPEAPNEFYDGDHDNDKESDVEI
# Assay: Inhibition of human recombinant HDAC3 pre-incubated with compounds for 10 mins measured followed by 60 mins of substrate addition
# Conditions: not given
row,Compound,IC50 [µM]
1,Nc1ccccc1NC(=O)c1ccc(CNC(=O)c2cnc(-c3ccc4c(c3)OCCO4)[nH]2)cc1,0.33
2,Nc1ccccc1NC(=O)c1ccc(CNC(=O)c2cnc(-c3ccccc3)[nH]2)cc1,0.12

# Results, then the molecule that gave them:
row,IC50 [µM],Compound
1,0.031,COc1ccc(-c2ncc(C(=O)NCCCCCCC(=O)NO)s2)c(OC)c1
2,0.066,CCCNNC(=O)c1ccc(CNC(=O)c2cnc(-c3ccccc3)[nH]2)cc1
3,0.1,COc1ccc(-c2ncc(C(=O)NCc3ccc(C(=O)Nc4ccccc4N)cc3)[nH]2)cc1

# Target: T1, Protein deacetylase HDAC6 (Homo sapiens, UniProt Q9UBN7)
# T1 sequence (Q9UBN7 whole entry): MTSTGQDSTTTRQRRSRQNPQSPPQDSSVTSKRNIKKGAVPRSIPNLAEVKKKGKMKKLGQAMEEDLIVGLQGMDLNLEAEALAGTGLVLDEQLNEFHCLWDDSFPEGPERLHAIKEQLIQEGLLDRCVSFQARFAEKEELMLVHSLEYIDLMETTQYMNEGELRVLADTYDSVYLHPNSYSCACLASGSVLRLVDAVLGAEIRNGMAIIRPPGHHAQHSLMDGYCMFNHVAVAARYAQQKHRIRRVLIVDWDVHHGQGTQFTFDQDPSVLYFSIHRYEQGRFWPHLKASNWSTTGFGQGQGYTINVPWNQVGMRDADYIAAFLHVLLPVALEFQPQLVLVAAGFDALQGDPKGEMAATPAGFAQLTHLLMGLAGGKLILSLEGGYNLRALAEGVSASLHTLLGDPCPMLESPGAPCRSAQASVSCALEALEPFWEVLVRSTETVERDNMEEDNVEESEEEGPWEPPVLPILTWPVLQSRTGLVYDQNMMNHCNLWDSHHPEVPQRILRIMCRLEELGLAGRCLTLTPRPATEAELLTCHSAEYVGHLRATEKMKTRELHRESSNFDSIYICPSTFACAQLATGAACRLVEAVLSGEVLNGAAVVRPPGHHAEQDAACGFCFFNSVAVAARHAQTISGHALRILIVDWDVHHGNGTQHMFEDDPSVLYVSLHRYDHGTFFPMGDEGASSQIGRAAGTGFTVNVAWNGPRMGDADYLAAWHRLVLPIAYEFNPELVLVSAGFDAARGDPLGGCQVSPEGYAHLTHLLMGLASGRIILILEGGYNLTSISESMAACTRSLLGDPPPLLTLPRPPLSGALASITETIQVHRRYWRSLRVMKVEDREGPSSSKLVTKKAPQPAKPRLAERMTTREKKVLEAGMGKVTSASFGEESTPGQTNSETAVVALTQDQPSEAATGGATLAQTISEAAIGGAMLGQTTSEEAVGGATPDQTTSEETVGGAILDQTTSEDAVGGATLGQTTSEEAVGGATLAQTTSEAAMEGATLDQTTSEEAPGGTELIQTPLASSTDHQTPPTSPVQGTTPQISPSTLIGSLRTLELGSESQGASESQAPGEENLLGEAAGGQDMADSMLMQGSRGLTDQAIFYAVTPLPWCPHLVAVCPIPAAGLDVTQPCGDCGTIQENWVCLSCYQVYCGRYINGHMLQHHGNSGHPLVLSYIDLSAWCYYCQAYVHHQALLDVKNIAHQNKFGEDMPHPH
# Assay: Inhibition of human recombinant HDAC6 pre-incubated with compounds for 10 mins measured followed by 60 mins of substrate addition
# Conditions: not given
row,Compound,IC50 [µM]
1,Nc1ccccc1NC(=O)c1ccc(CNC(=O)c2cnc(-c3ccc4c(c3)OCCO4)[nH]2)cc1,> 10
2,Nc1ccccc1NC(=O)c1ccc(CNC(=O)c2cnc(-c3ccccc3)[nH]2)cc1,> 10

# Next, values leading:
row,IC50 [µM],Compound
1,8.91,CCCNNC(=O)c1ccc(CNC(=O)c2cnc(-c3ccccc3)[nH]2)cc1
2,> 10,COc1ccc(-c2ncc(C(=O)NCc3ccc(C(=O)Nc4ccccc4N)cc3)[nH]2)cc1

# Target: T2, Histone deacetylase 7 (Homo sapiens, UniProt Q8WUI4)
# T2 sequence (Q8WUI4 whole entry): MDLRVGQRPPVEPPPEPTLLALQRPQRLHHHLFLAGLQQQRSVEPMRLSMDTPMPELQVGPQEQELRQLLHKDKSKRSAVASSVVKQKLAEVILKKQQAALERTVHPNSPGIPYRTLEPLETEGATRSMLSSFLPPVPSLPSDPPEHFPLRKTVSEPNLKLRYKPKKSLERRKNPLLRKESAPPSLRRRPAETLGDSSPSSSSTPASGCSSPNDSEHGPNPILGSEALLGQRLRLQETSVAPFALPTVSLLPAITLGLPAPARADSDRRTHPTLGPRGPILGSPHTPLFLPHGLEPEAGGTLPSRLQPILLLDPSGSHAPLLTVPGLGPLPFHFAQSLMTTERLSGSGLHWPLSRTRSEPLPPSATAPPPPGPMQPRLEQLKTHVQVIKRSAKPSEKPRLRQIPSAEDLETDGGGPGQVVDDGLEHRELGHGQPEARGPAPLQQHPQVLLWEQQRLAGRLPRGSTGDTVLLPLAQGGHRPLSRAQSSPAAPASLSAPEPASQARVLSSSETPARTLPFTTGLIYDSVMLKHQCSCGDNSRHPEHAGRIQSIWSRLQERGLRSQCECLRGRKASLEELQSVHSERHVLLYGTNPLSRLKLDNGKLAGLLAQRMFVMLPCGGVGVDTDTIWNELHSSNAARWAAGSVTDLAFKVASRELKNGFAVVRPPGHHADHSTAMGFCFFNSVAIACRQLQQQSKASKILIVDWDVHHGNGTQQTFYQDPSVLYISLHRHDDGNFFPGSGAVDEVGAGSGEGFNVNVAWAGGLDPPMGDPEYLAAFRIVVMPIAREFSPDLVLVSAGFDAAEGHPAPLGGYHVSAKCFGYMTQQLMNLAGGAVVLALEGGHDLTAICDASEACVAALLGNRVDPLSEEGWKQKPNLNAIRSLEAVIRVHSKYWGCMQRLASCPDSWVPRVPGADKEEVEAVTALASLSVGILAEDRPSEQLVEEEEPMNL
# Assay: Inhibition of human recombinant HDAC7 pre-incubated with compounds for 10 mins measured followed by 60 mins of substrate addition
# Conditions: not given
row,Compound,IC50 [µM]
1,Nc1ccccc1NC(=O)c1ccc(CNC(=O)c2cnc(-c3ccc4c(c3)OCCO4)[nH]2)cc1,> 10
2,Nc1ccccc1NC(=O)c1ccc(CNC(=O)c2cnc(-c3ccccc3)[nH]2)cc1,> 10

# Further lines, results first:
row,IC50 [µM],Compound
1,> 10,CCCNNC(=O)c1ccc(CNC(=O)c2cnc(-c3ccccc3)[nH]2)cc1
2,> 10,COc1ccc(-c2ncc(C(=O)NCc3ccc(C(=O)Nc4ccccc4N)cc3)[nH]2)cc1

# Target: T3, Histone deacetylase 8 (Homo sapiens, UniProt Q9BY41)
# T3 sequence (Q9BY41 whole entry): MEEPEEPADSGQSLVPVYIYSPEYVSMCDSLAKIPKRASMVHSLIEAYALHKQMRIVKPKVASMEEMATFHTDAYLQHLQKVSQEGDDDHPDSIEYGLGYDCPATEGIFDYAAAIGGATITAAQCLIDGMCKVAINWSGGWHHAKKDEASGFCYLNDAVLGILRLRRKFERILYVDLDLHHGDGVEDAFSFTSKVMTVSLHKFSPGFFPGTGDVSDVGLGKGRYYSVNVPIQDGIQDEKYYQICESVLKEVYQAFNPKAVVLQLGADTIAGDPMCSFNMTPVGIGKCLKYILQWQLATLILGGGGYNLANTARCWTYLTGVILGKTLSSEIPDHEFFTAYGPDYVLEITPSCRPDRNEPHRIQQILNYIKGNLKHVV
# Assay: Inhibition of human recombinant HDAC8 pre-incubated with compounds for 10 mins measured followed by 60 mins of substrate addition
# Conditions: not given
row,Compound,IC50 [µM]
1,Nc1ccccc1NC(=O)c1ccc(CNC(=O)c2cnc(-c3ccc4c(c3)OCCO4)[nH]2)cc1,> 10
2,Nc1ccccc1NC(=O)c1ccc(CNC(=O)c2cnc(-c3ccccc3)[nH]2)cc1,> 10

# The next lines start with the values.
row,IC50 [µM],Compound
1,> 10,CCCNNC(=O)c1ccc(CNC(=O)c2cnc(-c3ccccc3)[nH]2)cc1
2,> 10,COc1ccc(-c2ncc(C(=O)NCc3ccc(C(=O)Nc4ccccc4N)cc3)[nH]2)cc1

# System: HeLa
# Assay: Antiproliferative activity against human HeLa cells measured after 48 hrs incubation by MTT assay relative to control
# Type: functional, cell-based
# Conditions: not given
row,Compound,IC50 [µM]
1,Nc1ccccc1NC(=O)c1ccc(CNC(=O)OCc2cccnc2)cc1 [ENTINOSTAT],> 10
2,CCCNNC(=O)c1ccc(CNC(=O)c2ncc(CNc3ccccc3)s2)cc1,3.77
3,CCCNNC(=O)c1ccc(CNC(=O)c2cnc(-c3ccccc3)[nH]2)cc1,1.97

# System: HepG2
# Assay: Antiproliferative activity against human HepG2 cells measured after 48 hrs incubation by MTT assay relative to control
# Type: functional, cell-based
# Conditions: HepG2, 48 h
row,Compound,IC50 [µM]
1,Nc1ccccc1NC(=O)c1ccc(CNC(=O)OCc2cccnc2)cc1 [ENTINOSTAT],4.08
2,CCCNNC(=O)c1ccc(CNC(=O)c2ncc(CNc3ccccc3)s2)cc1,0.67
3,CCCNNC(=O)c1ccc(CNC(=O)c2cnc(-c3ccccc3)[nH]2)cc1,0.5

# System: MCF7
# Assay: Antiproliferative activity against human MCF7 cells measured after 48 hrs incubation by MTT assay relative to control
# Type: functional, cell-based
# Conditions: MCF7, 48 h
row,Compound,IC50 [µM]
1,Nc1ccccc1NC(=O)c1ccc(CNC(=O)OCc2cccnc2)cc1 [ENTINOSTAT],8.99
2,CCCNNC(=O)c1ccc(CNC(=O)c2ncc(CNc3ccccc3)s2)cc1,1.76
3,CCCNNC(=O)c1ccc(CNC(=O)c2cnc(-c3ccccc3)[nH]2)cc1,2.29

# System: MC-38
# Assay: Antiproliferative activity against mouse MC38 cells measured after 48 hrs incubation by MTT assay relative to control
# Type: functional, cell-based
# Conditions: MC-38, 48 h
row,Compound,IC50 [µM]
1,Nc1ccccc1NC(=O)c1ccc(CNC(=O)OCc2cccnc2)cc1 [ENTINOSTAT],> 10
2,CCCNNC(=O)c1ccc(CNC(=O)c2ncc(CNc3ccccc3)s2)cc1,2.35
3,CCCNNC(=O)c1ccc(CNC(=O)c2cnc(-c3ccccc3)[nH]2)cc1,5.3

# System: not listed separately
# Assay: Antiproliferative activity against […] cells measured after 48 hrs incubation by MTT assay relative to control
# Type: functional, cell-based
# Conditions: Mus musculus, Lung cancer cell line
row,Compound,IC50 [µM]
1,Nc1ccccc1NC(=O)c1ccc(CNC(=O)OCc2cccnc2)cc1 [ENTINOSTAT],2.87
2,CCCNNC(=O)c1ccc(CNC(=O)c2ncc(CNc3ccccc3)s2)cc1,0.25
3,CCCNNC(=O)c1ccc(CNC(=O)c2cnc(-c3ccccc3)[nH]2)cc1,2.19

# System: HCT-116
# Assay: Antiproliferative activity against human HCT-116 cells measured after 48 hrs incubation by MTT assay relative to control
# Type: functional, cell-based
# Conditions: HCT-116, 48 h
row,Compound,IC50 [µM]
1,CCCNNC(=O)c1ccc(CNC(=O)c2ncc(CNc3ccccc3)s2)cc1,0.31
2,CCCNNC(=O)c1ccc(CNC(=O)c2cnc(-c3ccccc3)[nH]2)cc1,0.16

# System: MC-38
# Assay: Increase in acetylated H3 in mouse MC38 cells at 0.1 to 2 uM measured after 24 hrs incubation by Western blot analysis
# Type: functional, cell-based
# Conditions: dose 0.1-2 µM
row,Compound,Activity
1,Nc1ccccc1NC(=O)c1ccc(CNC(=O)OCc2cccnc2)cc1 [ENTINOSTAT],Active

# System: MC-38
# Assay: Effect on acetylated alpha-tubulin in mouse MC38 cells at 0.1 to 2 uM measured after 24 hrs incubation by Western blot analysis
# Type: functional, cell-based
# Conditions: dose 0.1-2 µM
row,Compound,Activity
1,Nc1ccccc1NC(=O)c1ccc(CNC(=O)OCc2cccnc2)cc1 [ENTINOSTAT],inactive

# System: MC-38
# Assay: Effect on acetylated SMC3 in mouse MC38 cells at 0.1 to 2 uM measured after 24 hrs incubation by Western blot analysis
# Type: functional, cell-based
# Conditions: dose 0.1-2 µM
row,Compound,Activity
1,Nc1ccccc1NC(=O)c1ccc(CNC(=O)OCc2cccnc2)cc1 [ENTINOSTAT],inactive

# System: B16-F10 (Mus musculus)
# Assay: Antiproliferative activity against mouse B16-F10 cells measured after 48 hrs incubation by MTT assay relative to control
# Conditions: B16-F10, 48 h
row,Compound,IC50 [µM]
1,Nc1ccccc1NC(=O)c1ccc(CNC(=O)OCc2cccnc2)cc1 [ENTINOSTAT],9.36
2,CCCNNC(=O)c1ccc(CNC(=O)c2ncc(CNc3ccccc3)s2)cc1,1.77
3,CCCNNC(=O)c1ccc(CNC(=O)c2cnc(-c3ccccc3)[nH]2)cc1,3.06

# System: B16-F10
# Assay: Antiproliferative activity against mouse B16-F10 cells at 1 uM measured after 48 hrs incubation by MTT assay relative to control
# Conditions: not given
row,Compound,Activity [%]
1,Nc1ccccc1NC(=O)c1ccc(CNC(=O)c2cnc(-c3ccc(F)cc3)[nH]2)cc1,9.98
2,Nc1ccccc1NC(=O)c1ccc(CNC(=O)OCc2cccnc2)cc1 [ENTINOSTAT],16.1
3,CCCNNC(=O)c1ccc(CNC(=O)c2ncc(CNc3ccccc3)s2)cc1,57.29
4,Nc1ccccc1NC(=O)c1ccc(CNC(=O)c2cnc(-c3ccc4c(c3)OCCO4)[nH]2)cc1,13.1
5,Nc1ccccc1NC(=O)c1ccc(CNC(=O)c2cnc(-c3ccccc3)[nH]2)cc1,15.84
6,CCCNNC(=O)c1ccc(CNC(=O)c2cnc(-c3ccccc3)[nH]2)cc1,49.33
7,COc1ccc(-c2ncc(C(=O)NCc3ccc(C(=O)Nc4ccccc4N)cc3)[nH]2)cc1,28.07
8,CCCNNC(=O)c1ccc(CNC(=O)c2cnc(-c3ccc4[nH]ccc4c3)[nH]2)cc1,2.77
